In ChEMBL document CHEMBL1926553, “Synthesis and antitumor activity of conjugates of 5-Fluorouracil and emodin” (Eur J Med Chem, 2012):

What was measured:
SGC-7901 [1] = assay: Cytotoxicity against human SGC7901 cells after 2 days by alamar blue assay; format: functional, cell-based; conditions: SGC-7901, 48 h
[2] = Cytotoxicity against human HO8910 cells after 2 days by alamar blue assay; format: functional, cell-based; conditions: HO-8910, 48 h
HepG2 = assay: Cytotoxicity against human HepG2 cells after 2 days by alamar blue assay; format: functional, cell-based; conditions: HepG2, 48 h
[3] = Ratio of compound IC50 to 5-Fluorouracil IC50 for human HEK293 cells after 2 days by alamar blue assay; format: ADME, cell-based; conditions: read-out: Ratio IC50
HEK293 = assay: Cytotoxicity against human HEK293 cells after 2 days by alamar blue assay; format: cell-based; conditions: HEK293, 48 h
SGC-7901 [4] = assay: Ratio of emodin IC50 to compound IC50 for human SGC7901 cells after 2 days by alamar blue assay; format: functional
[5] = Ratio of compound IC50 to emodin IC50 for human HEK293 cells after 2 days by alamar blue assay; format: ADME, cell-based; conditions: read-out: Ratio IC50

Work on COc1cc(OC)c2c(c1)C(=O)c1cc(C)c(Cn3cc(F)c(=O)n(C)c3=O)c(OC)c1C2=O yielded an IC50 (SGC-7901 [1]) greater than 100 µM, an IC50 [2] greater than 100 µM and an IC50 (HepG2) greater than 100 µM.
With COc1cc(OC)c2c(c1)C(=O)c1cc(C)c(Cn3cc(F)c(=O)n(Cc4ccccc4F)c3=O)c(OC)c1C2=O the IC50 (SGC-7901 [1]) was 61 µM, the IC50 [2] was 91.1 µM and the selectivity ratio at 48 h [3] was 1.5. The IC50 (HEK293; read-out: IC50) was 66.6 µM and the IC50 (HepG2) was greater than 100 µM.
Work on COc1cc(OC)c2c(c1)C(=O)c1cc(C)c(Cn3cc(F)c(=O)n(Cc4ccccc4)c3=O)c(OC)c1C2=O yielded an IC50 (SGC-7901 [1]) of 39.5 µM, an IC50 [2] of 45.1 µM and an IC50 (HEK293; read-out: IC50) greater than 100 µM. For the same compound, the IC50 (HepG2) was greater than 100 µM and the “Ratio IC50” value (SGC-7901 [4]) was 1.5.
For COc1cc(OC)c2c(c1)C(=O)c1cc(C)c(Cn3cc(F)c(=O)n(Cc4ccccc4C#N)c3=O)c(OC)c1C2=O, the selectivity ratio at 48 h [5] was 23, the IC50 (SGC-7901 [1]) was 21.4 µM and the IC50 [2] was 22.6 µM. The IC50 (HEK293; read-out: IC50) was 29.6 µM, the IC50 (HepG2) was 39.9 µM and the “Ratio IC50” value (SGC-7901 [4]) was 3.
In the case of COc1cc(OC)c2c(c1)C(=O)c1cc(C)c(Cn3cc(F)c(=O)n(CC=C(C)C)c3=O)c(OC)c1C2=O, the IC50 (SGC-7901 [1]) is reported as greater than 100 µM, the IC50 [2] is reported as greater than 100 µM and the IC50 (HepG2) is reported as greater than 100 µM.
For COc1cc(OC)c2c(c1)C(=O)c1cc(C)c(Cn3cc(F)c(=O)[nH]c3=O)c(OC)c1C2=O, the IC50 (SGC-7901 [1]) was greater than 100 µM, the IC50 [2] was greater than 100 µM and the IC50 (HEK293; read-out: IC50) was greater than 100 µM. For the same compound, the IC50 (HepG2) was greater than 100 µM.
With CCCCn1c(=O)c(F)cn(Cc2c(C)cc3c(c2OC)C(=O)c2c(OC)cc(OC)cc2C3=O)c1=O the IC50 (SGC-7901 [1]) was greater than 100 µM, the IC50 [2] was greater than 100 µM and the IC50 (HepG2) was greater than 100 µM.
Compound COc1cc(OC)c2c(c1)C(=O)c1cc(C)c(Cn3cc(F)c(=O)n(CCc4ccccc4)c3=O)c(OC)c1C2=O has an IC50 (SGC-7901 [1]) greater than 100 µM, an IC50 [2] of 11.6 µM and an IC50 (HEK293; read-out: IC50) of 4.6 µM. For the same compound, the IC50 (HepG2) was 68.6 µM.
Compound COc1cc(OC)c2c(c1)C(=O)c1cc(C)c(Cn3cc(F)c(=O)n(Cc4cccc(F)c4)c3=O)c(OC)c1C2=O has an IC50 (SGC-7901 [1]) greater than 100 µM, an IC50 [2] greater than 100 µM and an IC50 (HEK293; read-out: IC50) greater than 100 µM. For the same compound, the IC50 (HepG2) was greater than 100 µM.
With C/C=C/Cn1c(=O)c(F)cn(Cc2c(C)cc3c(c2OC)C(=O)c2c(OC)cc(OC)cc2C3=O)c1=O the IC50 (SGC-7901 [1]) was greater than 100 µM, the IC50 [2] was greater than 100 µM and the IC50 (HepG2) was greater than 100 µM.
In the case of O=c1[nH]cc(F)c(=O)[nH]1 [FLUOROURACIL], the IC50 (SGC-7901 [1]) is reported as 76 µM, the IC50 [2] is reported as 85.5 µM and the IC50 (HEK293) is reported as 42.9 µM. The IC50 (HepG2) was 76.7 µM.
Compound COc1cc(OC)c2c(c1)C(=O)c1cc(C)c(Cn3cc(F)c(=O)n(Cc4ccc5c(c4)OCO5)c3=O)c(OC)c1C2=O has an IC50 (SGC-7901 [1]) greater than 100 µM, an IC50 [2] greater than 100 µM and an IC50 (HEK293; read-out: IC50) of 30 µM. It also gave an IC50 (HepG2) of 91 µM.
For CCn1c(=O)c(F)cn(Cc2c(C)cc3c(c2OC)C(=O)c2c(OC)cc(OC)cc2C3=O)c1=O, the IC50 (SGC-7901 [1]) was greater than 100 µM, the IC50 [2] was greater than 100 µM and the IC50 (HepG2) was greater than 100 µM.
Cc1cc(O)c2c(c1)C(=O)c1cc(O)cc(O)c1C2=O [EMODIN] gave an IC50 (SGC-7901 [1]) of 61.3 µM, an IC50 [2] of 16 µM and an IC50 (HEK293; read-out: IC50) of 1.3 µM. The IC50 (HepG2) was 13.1 µM.
